According to US20040242591A1, “Oxazolidinone derivatives as pontential antimicrobials” (priority 2001, published 2004):

Key:
[1] = test system: S. pneum AB 34; experiment: MIC by agar incorporation method, S. pneum AB 34; format: cell-based, Streptococcus pneumoniae; parameters: unit not given here; settings: Mueller Hinton agar, 10^4 CFU/spot, 18 hours
[2] = test system: MRSA 15187; experiment: MIC by agar incorporation method, MRSA 15187; format: cell-based, Methicillin Resistant Staphylococcus aureus; parameters: unit not given here; settings: Mueller Hinton agar, 10^4 CFU/spot, 24 hours
Excerpt: 2) MRSA 15187—Methicillin Resistant Staphylococcus aureus

[3] = test system: Strep.pyog. ATCC 19615; experiment: MIC by agar incorporation method, S.pyogenes 19615; format: cell-based, Streptococcus pyogenes; parameters: unit not given here; settings: Mueller Hinton agar, 10^4 CFU/spot, 18 hours
Excerpt: 6) Strep.pyog. ATCC 19615—Streptococcus pyogenes

[4] = test system: MRSA 33; experiment: MIC by agar incorporation method, MRSA 33; format: cell-based, Methicillin Resistant Staphylococcus aureus; parameters: unit not given here; settings: Mueller Hinton agar, 10^4 CFU/spot, 24 hours
[5] = test system: Strep. pne. ATCC 6303; experiment: MIC by agar incorporation method, S. pneum 6303; format: cell-based, Streptococcus pneumoniae; settings: Mueller Hinton agar, 10^4 CFU/spot, 18 hours
Excerpt: 5) Strep. pne. ATCC 6303—Streptococcus pneumoniae ATCC 6303

[6] = test system: Ent. faecalis ATCC 29212; experiment: MIC by agar incorporation method, E.faecalis 29212; format: cell-based, Enterococcus faecalis; parameters: unit not given here; settings: Mueller Hinton agar, 10^4 CFU/spot, 18 hours
Excerpt: 3) Ent. faecalis ATCC 29212—Enterococcus faecalis ATCC 29212

[7] = test system: S.aureus ATCC 25923; experiment: MIC by agar incorporation method, S.aureus 25923; format: cell-based, Staphylococus aureus; parameters: unit not given here; settings: Mueller Hinton agar, 10^4 CFU/spot, 18 hours
[8] = test system: MRSA 562; experiment: MIC by agar incorporation method, MRSA 562; format: cell-based, Methicillin Resistant Staphylococcus aureus; parameters: unit not given here; settings: Mueller Hinton agar, 10^4 CFU/spot, 24 hours
[9] = test system: VRE 6A; experiment: MIC by agar incorporation method, VRE 6A; format: cell-based, Enterococcus faecium; parameters: unit not given here; settings: Mueller Hinton agar, 10^4 CFU/spot, 18 hours
Excerpt: 4) Ent. faecium […]—Enterococcus faecium 6A Van®, Cipro®

CC(=O)NC[C@H]1CN(c2ccc(N3CCN(C(=O)c4ccc(NC(C)=O)s4)CC3)c(F)c2)C(=O)O1 [Compound No. 29, (S)-N-[[3-[3-Fluoro-1-[N-1-[4-{2-thiophenoyl-(5-acetamido)}]piperazinyl]phenyl]-2-oxo-5-oxazolidinyl]methyl]acetamide] was tested, and the “In Vitro (MIC) S. pneum AB 34” value [1] was 1, the “In Vitro (MIC) MRSA 15187” value [2] was 4 and the “In Vitro (MIC) S.pyogenes 19615” value [3] was 0.5. For the same compound, the “In Vitro (MIC) MRSA 33” value [4] was 4, the “In Vitro (MIC) S. pneum 6303” value [5] was 0.5 µg/mL and the “In Vitro (MIC) E.faecalis 29212” value [6] was 4. The “In Vitro (MIC) S.aureus 25923” value [7] was 8, the “In Vitro (MIC) MRSA 562” value [8] was 4 and the “In Vitro (MIC) VRE 6A” value [9] was 4.

CC(=O)NC[C@H]1CN(c2ccc(N3CCC(CN(C)Cc4ccc([N+](=O)[O-])s4)CC3)c(F)c2)C(=O)O1 [Compound No. 94] was tested, and the “In Vitro (MIC) S. pneum AB 34” value [1] was 8, the “In Vitro (MIC) MRSA 15187” value [2] was 2 and the “In Vitro (MIC) S.pyogenes 19615” value [3] was 4. The “In Vitro (MIC) MRSA 33” value [4] was 2, the “In Vitro (MIC) S. pneum 6303” value [5] was 4 µg/mL and the “In Vitro (MIC) E.faecalis 29212” value [6] was 4. For the same compound, the “In Vitro (MIC) S.aureus 25923” value [7] was 4, the “In Vitro (MIC) MRSA 562” value [8] was 2 and the “In Vitro (MIC) VRE 6A” value [9] was 4.

With CC(=O)NC[C@H]1CN(c2ccc(N3CCN(Cc4ccc([N+](=O)[O-])n4C)CC3)c(F)c2)C(=O)O1 [Compound No. 12, (S)-N-[[3-[3-Fluoro-4-[N-1-[4-{2-pyrrole-(1-methyl-5-nitro)methyl}]piperazinyl]phenyl]-2-oxo-5-oxazolidinyl]methyl]acetamide] the “In Vitro (MIC) S. pneum AB 34” value [1] was 8, the “In Vitro (MIC) MRSA 15187” value [2] was 4 and the “In Vitro (MIC) S.pyogenes 19615” value [3] was 2. The “In Vitro (MIC) MRSA 33” value [4] was 4, the “In Vitro (MIC) S. pneum 6303” value [5] was 8 µg/mL and the “In Vitro (MIC) E.faecalis 29212” value [6] was 4. The “In Vitro (MIC) S.aureus 25923” value [7] was 4, the “In Vitro (MIC) MRSA 562” value [8] was 4 and the “In Vitro (MIC) VRE 6A” value [9] was 4.
